Assay results reported in ChEMBL document CHEMBL3244076, “N,N'-(Phenylene)dioxamic acids and their esters as antiallergy agents” (1978).

Columns and labels:
Type in all cases: functional
Rattus norvegicus [1] = assay: Antiallergic activity in anti-egg albumin homocytotropic antibody-sensitized Sprague-Dawley rat assessed as inhibition of passive cutaneous anaphylaxis reaction at 1 mg/kg, iv administered at the time of antigen egg albumin challenge
Rattus norvegicus [2] = assay: Antiallergic activity in anti-egg albumin homocytotropic antibody-sensitized Sprague-Dawley rat assessed as inhibition of passive cutaneous anaphylaxis reaction at 0.1 mg/kg, iv administered at the time of antigen egg albumin challenge
Rattus norvegicus [3] = assay: Antiallergic activity in anti-egg albumin homocytotropic antibody-sensitized Sprague-Dawley rat assessed as inhibition of passive cutaneous anaphylaxis reaction at 0.001 mg/kg, iv administered at the time of antigen egg albumin challenge
Rattus norvegicus [4] = assay: Antiallergic activity in anti-egg albumin homocytotropic antibody-sensitized Sprague-Dawley rat assessed as inhibition of passive cutaneous anaphylaxis reaction at 0.01 mg/kg, iv administered at the time of antigen egg albumin challenge
Rattus norvegicus [5] = assay: Antiallergic activity in anti-egg albumin homocytotropic antibody-sensitized Sprague-Dawley rat assessed as inhibition of passive cutaneous anaphylaxis reaction at 50 mg/kg, po administered 20 mins prior to antigen egg albumin challenge
Rattus norvegicus [6] = assay: Antiallergic activity in anti-egg albumin homocytotropic antibody-sensitized Sprague-Dawley rat assessed as inhibition of passive cutaneous anaphylaxis reaction at 50 mg/kg, po administered 60 mins prior to antigen egg albumin challenge
Rattus norvegicus [7] = assay: Antiallergic activity in anti-egg albumin homocytotropic antibody-sensitized Sprague-Dawley rat assessed as inhibition of passive cutaneous anaphylaxis reaction at 50 mg/kg, po administered 5 mins prior to antigen egg albumin challenge
Rattus norvegicus [8] = assay: Antiallergic activity in anti-egg albumin homocytotropic antibody-sensitized Sprague-Dawley rat assessed as inhibition of passive cutaneous anaphylaxis reaction at 50 mg/kg, po administered 120 mins prior to antigen egg albumin challenge
Rattus norvegicus [9] = assay: Antiallergic activity in anti-egg albumin homocytotropic antibody-sensitized Sprague-Dawley rat assessed as time of peak action for inhibition of passive cutaneous anaphylaxis reaction at 50 mg/kg, po administered prior to antigen egg albumin challenge
Rattus norvegicus [10] = assay: Antiallergic activity in anti-egg albumin homocytotropic antibody-sensitized Sprague-Dawley rat assessed as inhibition of passive cutaneous anaphylaxis reaction at 50 mg/kg, po administered prior to antigen egg albumin challenge

Structure (SMILES) | inhibition in vivo at 50 mg/kg (Rattus norvegicus [5]) [%] | inhibition in vivo at 50 mg/kg (Rattus norvegicus [6]) [%] | inhibition in vivo at 50 mg/kg (Rattus norvegicus [7]) [%] | also measured
N#Cc1cc(NC(=O)C(=O)O)cc(NC(=O)C(=O)O)c1Cl |  |  |  | inhibition in vivo at 1 mg/kg (Rattus norvegicus [1]): 100%; inhibition in vivo at 0.1 mg/kg (Rattus norvegicus [2]): 100%; inhibition in vivo at 0.001 mg/kg (Rattus norvegicus [3]): 0%; inhibition in vivo at 0.01 mg/kg (Rattus norvegicus [4]): 20%
CCOC(=O)C(=O)Nc1c([N+](=O)[O-])cc([N+](=O)[O-])c(NC(=O)C(=O)OCC)c1Cl | 25 | 0 |  | 
O=C(O)C(=O)Nc1cc(Cl)c(NC(=O)C(=O)O)cc1Cl |  |  |  | inhibition in vivo at 1 mg/kg (Rattus norvegicus [1]): 73%
Cc1cc(NC(=O)C(=O)O)c(Cl)c(NC(=O)C(=O)O)c1 |  |  |  | inhibition in vivo at 1 mg/kg (Rattus norvegicus [1]): 100%; inhibition in vivo at 0.1 mg/kg (Rattus norvegicus [2]): 91%; inhibition in vivo at 0.001 mg/kg (Rattus norvegicus [3]): 2%; inhibition in vivo at 0.01 mg/kg (Rattus norvegicus [4]): 20%
CCOC(=O)C(=O)Nc1cccc(NC(=O)C(=O)OCC)c1C | 53 |  | 28 | 
CCOC(=O)C(=O)Nc1cc(C(C)=O)cc(NC(=O)C(=O)OCC)c1Cl | 14 | 37 |  | inhibition in vivo at 50 mg/kg (Rattus norvegicus [8]): 31%
CCOC(=O)C(=O)Nc1cc(C(=O)OC)cc(NC(=O)C(=O)OCC)c1Cl | 7 | 0 |  | inhibition in vivo at 50 mg/kg (Rattus norvegicus [8]): 0%
O=C(O)C(=O)Nc1cc(CS(=O)O)cc(NC(=O)C(=O)O)c1Cl |  |  |  | inhibition in vivo at 1 mg/kg (Rattus norvegicus [1]): 85%; inhibition in vivo at 0.1 mg/kg (Rattus norvegicus [2]): 10%
CCOC(=O)C(=O)Nc1ccc(OC)c(NC(=O)C(=O)OCC)c1 | 70 | 11 | 50 | inhibition in vivo at 50 mg/kg (Rattus norvegicus [8]): 45%
N#Cc1cc(NC(=O)C(=O)O)cc(NC(=O)C(=O)O)c1 |  |  |  | inhibition in vivo at 0.1 mg/kg (Rattus norvegicus [2]): 90%; inhibition in vivo at 0.01 mg/kg (Rattus norvegicus [4]): 57%
CCOC(=O)C(=O)Nc1cc(C)cc(NC(=O)C(=O)OCC)c1Cl | 26 | 0 |  | inhibition in vivo at 50 mg/kg (Rattus norvegicus [8]): 3%
CC(=O)c1cc(NC(=O)C(=O)O)c(Cl)c(NC(=O)C(=O)O)c1 |  |  |  | inhibition in vivo at 1 mg/kg (Rattus norvegicus [1]): 88%; inhibition in vivo at 0.1 mg/kg (Rattus norvegicus [2]): 22%; inhibition in vivo at 0.01 mg/kg (Rattus norvegicus [4]): 0%
CCOC(=O)C(=O)Nc1cc(NC(=O)C(=O)OCC)cc([N+](=O)[O-])c1 | 0 | 6 | 0 | 
CCOC(=O)C(=O)Nc1cccc(NC(=O)C(=O)OCC)c1OC | 11 | 22 | 72 | 
CCOC(=O)C(=O)Nc1cc(C(F)(F)F)cc(NC(=O)C(=O)OCC)c1Cl | 10 | 4 | 10 | 
CCOC(=O)C(=O)Nc1cc(C(N)=O)cc(NC(=O)C(=O)OCC)c1Cl | 49 |  | 85 | 
CCOC(=O)C(=O)Nc1cc(C(F)(F)F)cc(NC(=O)C(=O)OCC)c1C#N | 25 | 0 | 50 | 
CCOC(=O)C(=O)Nc1cc(NC(=O)C(=O)OCC)cc(C(=O)O)c1 | 0 | 0 | 14 | inhibition in vivo at 50 mg/kg (Rattus norvegicus [8]): 20%
CCOC(=O)C(=O)Nc1cc(C(=O)O)cc(NC(=O)C(=O)OCC)c1C | 0 | 0 | 0 | inhibition in vivo at 50 mg/kg (Rattus norvegicus [8]): 0%
N#Cc1ccc(NC(=O)C(=O)O)cc1NC(=O)C(=O)O |  |  |  | inhibition in vivo at 1 mg/kg (Rattus norvegicus [1]): 87%; inhibition in vivo at 0.1 mg/kg (Rattus norvegicus [2]): 8%
CCOC(=O)C(=O)Nc1cccc(NC(=O)C(=O)OCC)c1Cl | 17 | 1.8 | 53 | Time (Rattus norvegicus [9]): 5 min
O=C(O)C(=O)Nc1cc(NC(=O)C(=O)O)c(Cl)cc1Cl |  |  |  | inhibition in vivo at 1 mg/kg (Rattus norvegicus [1]): 81%; inhibition in vivo at 0.1 mg/kg (Rattus norvegicus [2]): 25%; inhibition in vivo at 0.01 mg/kg (Rattus norvegicus [4]): 0%
N#Cc1cc(NC(=O)C(=O)OC23CC4CC(CC(C4)C2)C3)c(Cl)c(NC(=O)C(=O)OC23CC4CC(CC(C4)C2)C3)c1 |  |  |  | Time (Rattus norvegicus [9]): 60 min; inhibition in vivo at 50 mg/kg (Rattus norvegicus [10]): 50%
CCOC(=O)C(=O)Nc1cc(NC(=O)C(=O)OCC)c([N+](=O)[O-])cc1[N+](=O)[O-] | 17 | 9 |  | 
CCOC(=O)C(=O)Nc1ccc(C)c(NC(=O)C(=O)OCC)c1 | 38 | 12 | 17 | 
O=C(O)C(=O)Nc1cccc(NC(=O)C(=O)O)c1 |  |  |  | inhibition in vivo at 1 mg/kg (Rattus norvegicus [1]): 82%; inhibition in vivo at 0.1 mg/kg (Rattus norvegicus [2]): 73%; inhibition in vivo at 0.01 mg/kg (Rattus norvegicus [4]): 0%
CCOC(=O)C(=O)Nc1cc(NC(=O)C(=O)OCC)cc(OC)c1 | 4 | 0 |  | inhibition in vivo at 50 mg/kg (Rattus norvegicus [8]): 29%
